Like-named read-outs stand apart in the source and are kept apart here.
Assays:
[1] = tested on: Aβ40 in conditioned medium of cells stably expressing Amyloid Precursor Protein (APP); test: In vitro BACE cell-based assay (Aβ40 in conditioned medium, sandwich ELISA); details: Homo sapiens, read-out: HEK cell assay
In short: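 The sandwich ELISA pairs pAb40 capture (3 h, 4 °C) with 6E10 detection (2 h, 4 °C) and a streptavidin-europium TRF read-out. Supernatants come from APP-expressing cells grown in 10% FBS DMEM.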

[2] = molecular target: Beta Secretase enzyme (BACE) (Homo sapiens, UniProt P56817); test: In vitro enzymatic BACE FRET (fluorescence resonance energy transfer) assay; type: biochemical; details: average IC50, enzyme assay; read-out: BACE 1 FRET assay
In short: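 Acetate buffer (0.05 M, pH 4.2), 10% DMSO final, 100 uM nonionic detergent genapol. Substrate addition (50 nM FRET peptide) initiates; one-hour incubation; Tris raises pH to neutrality before fluorescence measurement.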

Chain of Beta Secretase enzyme (BACE) (P56817 46-501, species assumed): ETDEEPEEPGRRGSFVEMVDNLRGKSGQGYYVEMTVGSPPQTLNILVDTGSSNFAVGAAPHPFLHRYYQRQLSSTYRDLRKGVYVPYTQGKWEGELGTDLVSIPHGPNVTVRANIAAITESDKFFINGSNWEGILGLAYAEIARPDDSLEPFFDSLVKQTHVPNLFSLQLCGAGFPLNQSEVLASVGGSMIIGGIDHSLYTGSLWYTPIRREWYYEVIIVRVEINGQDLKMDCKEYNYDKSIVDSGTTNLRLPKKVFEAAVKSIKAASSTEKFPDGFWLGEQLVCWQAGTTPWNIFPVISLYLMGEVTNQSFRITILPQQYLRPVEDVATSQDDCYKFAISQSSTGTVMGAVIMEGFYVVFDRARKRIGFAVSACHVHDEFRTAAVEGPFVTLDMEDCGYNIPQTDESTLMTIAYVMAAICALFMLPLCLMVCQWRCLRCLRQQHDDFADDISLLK

Compound	IC50 ([1]; HEK293, average IC50) [nM]	IC50 [2] [nM]	IC50 ([1]; HEK293, average IC50, HEK cell assay) [nM]
NC1=N[C@@]2(CS1)c1cc(-c3cccnc3)ccc1Oc1c(F)cc(C3=CCOCC3)cc12 [Example 796, (4S)-2′-(3,6-dihydro-2H-pyran-4-yl)-4′-fluoro-7′-(3-pyridinyl)spiro[1,3-thiazole-4,9′-xanthen]-2-amine]	8	0.5	
CC1(C)CC(=O)N(c2cc(F)c3c(c2)[C@]2(COC(N)=N2)c2cc(-c4cccnc4F)ccc2O3)C1 [Example 797, 1-((4S)-2-amino-4′-fluoro-7′-(2-fluoro-3-pyridinyl)spiro[1,3-oxazole-4,9′-xanthen]-2′-yl)-4,4-dimethyl-2-pyrrolidinone]	7	0.6	
CC1(C)CC(=O)N(c2cc(F)c3c(c2)[C@]2(COC(N)=N2)c2cc(-c4cccnc4)ccc2O3)C1 [Example 798, 1-((4S)-2-amino-4′-fluoro-7′-(3-pyridinyl)spiro[1,3-oxazole-4,9′-xanthen]-2′-yl)-4,4-dimethyl-2-pyrrolidinone]	8	1.4	
NC1=N[C@@]2(CS1)c1cc(-c3cccnc3)ccc1Oc1c(F)cc(N3CCOCC3)cc12 [Example 799, (4S)-4′-fluoro-2′-(4-morpholinyl)-7′-(3-pyridinyl)spiro[1,3-thiazole-4,9′-xanthen]-2-amine]	18	1.5	
CC(C)(C#N)COc1cc(F)c2c(c1)[C@]1(CSC(N)=N1)c1cc(-c3cccnc3F)ccc1O2 [Example 800, 3-(((4S)-2-amino-4′-fluoro-7′-(2-fluoro-3-pyridinyl)spiro[1,3-thiazole-4,9′-xanthen]-2′-yl)oxy)-2,2-dimethylpropanenitrile]	20	0.4	
NC1=N[C@@]2(CO1)c1cc(-c3cccnc3F)ccc1Oc1c(F)cc(C3=CC(=O)OC3)cc12 [Example 801, 4-((4S)-2-amino-4′-fluoro-7′-(2-fluoro-3-pyridinyl)spiro[1,3-oxazole-4,9′-xanthen]-2′-yl)-2(5H)-furanone]	170	2.2	
CC1(C)CC(c2cc(F)c3c(c2)[C@]2(COC(N)=N2)c2cc(-c4cccnc4F)ccc2O3)=CC(=O)O1 [Example 804, 4-((4S)-2-amino-4′-fluoro-7′-(2-fluoro-3-pyridinyl)spiro[1,3-oxazole-4,9′-xanthen]-2′-yl)-6,6-dimethyl-5,6-dihydro-2H-pyran-2-one]	33	0.8	
NC1=N[C@@]2(CO1)c1cc(-c3cccnc3F)ccc1Oc1c(F)cc(C3=C(Cl)COCC3)cc12 [Example 805, (4S)-2′-(5-chloro-3,6-dihydro-2H-pyran-4-yl)-4′-fluoro-7′-(2-fluoro-3-pyridinyl)spiro[1,3-oxazole-4,9′-xanthen]-2-amine]	3	0.2	
NC1=N[C@@]2(CO1)c1cc(-c3cccnc3F)ccc1Oc1c2cc(-c2ccccc2)nc1F [Example 806, (S)-1-fluoro-7-(2-fluoropyridin-3-yl)-3-phenyl-5′H-spiro[chromeno[2,3-c]pyridine-5,4′-oxazol]-2′-amine]		1.5	5
Cc1ncncc1-c1ccc2c(c1)[C@@]1(COC(N)=N1)c1cc(C3=CCOCC3)ncc1O2 [Example 808, (5S)-3-(3,6-dihydro-2H-pyran-4-yl)-7-(4-methyl-5-pyrimidinyl)spiro[chromeno[2,3-c]pyridine-5,4′-[1,3]oxazol]-2′-amine]	93	3	
Cc1ncncc1-c1ccc2c(c1)[C@@]1(COC(N)=N1)c1cc(-c3ccnc(F)c3)ncc1O2 [Example 809, (5S)-3-(2-fluoro-4-pyridinyl)-7-(4-methyl-5-pyrimidinyl)spiro[chromeno[2,3-c]pyridine-5,4′-[1,3]oxazol]-2′-amine]	518	8.3	
CC1(C#Cc2cncc(-c3ccc4c(c3)[C@@]3(COC(N)=N3)c3cc(Cl)ncc3O4)c2)COC1 [Example 810, (5S)-3-chloro-7-(5-((3-methyl-3-oxetanyl)ethynyl)-3-pyridinyl)spiro[chromeno[2,3-c]pyridine-5,4′-[1,3]oxazol]-2′-amine]	≥ 10000	604	
CC1(C#Cc2cncc(-c3ccc4c(c3)[C@@]3(COC(N)=N3)c3cc(-c5ccnc(F)c5)ncc3O4)c2)COC1 [Example 812, (5S)-3-(2-fluoro-4-pyridinyl)-7-(5-((3-methyl-3-oxetanyl)ethynyl)-3-pyridinyl)spiro[chromeno[2,3-c]pyridine-5,4′-[1,3]oxazol]-2′-amine]	460	5.5	
CC1(C#Cc2cncc(-c3ccc4c(c3)[C@@]3(COC(N)=N3)c3cc(C5=CCCOC5)ncc3O4)c2)COC1 [Example 813, (5S)-3-(5,6-dihydro-2H-pyran-3-yl)-7-(5-((3-methyl-3-oxetanyl)ethynyl)-3-pyridinyl)spiro[chromeno[2,3-c]pyridine-5,4′-[1,3]oxazol]-2′-amine]	53	2.5	
NC1=N[C@@]2(CO1)c1cc(-c3cncc(C#CC4CC4)c3)ccc1Oc1cnc(-c3ccnc(F)c3)cc12 [Example 815, (5S)-7-(5-(cyclopropylethynyl)-3-pyridinyl)-3-(2-fluoro-4-pyridinyl)spiro[chromeno[2,3-c]pyridine-5,4′-[1,3]oxazol]-2′-amine]	699	1.9	
CC(C)(O)C#Cc1cncc(-c2ccc3c(c2)[C@@]2(COC(N)=N2)c2cc(-c4ccnc(F)c4)ncc2O3)c1 [Example 817, 4-(5-((5S)-2′-amino-3-(2-fluoro-4-pyridinyl)spiro[chromeno[2,3-c]pyridine-5,4′-[1,3]oxazol]-7-yl)-3-pyridinyl)-2-methyl-3-butyn-2-ol]	1480	13.5	
CC(C)(O)C#Cc1cncc(-c2ccc3c(c2)[C@@]2(COC(N)=N2)c2cc(C4=CCOCC4)ncc2O3)c1 [Example 818, 4-(5-((5S)-2′-amino-3-(3,6-dihydro-2H-pyran-4-yl)spiro[chromeno[2,3-c]pyridine-5,4′-[1,3]oxazol]-7-yl)-3-pyridinyl)-2-methyl-3-butyn-2-ol]	152	4.9	
CC(C)(O)C#Cc1cncc(-c2ccc3c(c2)[C@@]2(COC(N)=N2)c2cc(C4=CCCOC4)ncc2O3)c1 [Example 819, 4-(5-((5S)-2′-amino-3-(5,6-dihydro-2H-pyran-3-yl)spiro[chromeno[2,3-c]pyridine-5,4′-[1,3]oxazol]-7-yl)-3-pyridinyl)-2-methyl-3-butyn-2-ol]	238	5.2	
COc1cc(F)c2c(c1)[C@]1(COC(N)=N1)c1cc(-c3cncc(C#CCO)c3)ccc1O2 [Example 820, 3-(5-((4S)-2-amino-5′-fluoro-7′-methoxyspiro[1,3-oxazole-4,9′-xanthen]-2′-yl)-3-pyridinyl)-2-propyn-1-ol]	21	1.1	
COc1cc(F)c2c(c1)[C@]1(COC(N)=N1)c1cc(-c3cncc(C#CC4(C)COC4)c3)ccc1O2 [Example 821, (4S)-4′-fluoro-2′-methoxy-7′-(5-((3-methyl-3-oxetanyl)ethynyl)-3-pyridinyl)spiro[1,3-oxazole-4,9′-xanthen]-2-amine]	2900	51.4	
COc1cc(F)c2c(c1)[C@]1(COC(N)=N1)c1cc(-c3cncc(C#CC(C)(C)O)c3)ccc1O2 [Example 822, 4-(5-((4S)-2-amino-5′-fluoro-7′-methoxyspiro[1,3-oxazole-4,9′-xanthen]-2′-yl)-3-pyridinyl)-2-methyl-3-butyn-2-ol]	3000	93.3	
COc1cc(F)c2c(c1)[C@]1(COC(N)=N1)c1cc(-c3cncc(C#CC(C)(C)OC)c3)ccc1O2 [Example 823, (4S)-4′-fluoro-2′-methoxy-7′-(5-(3-methoxy-3-methyl-1-butyn-1-yl)-3-pyridinyl)spiro[1,3-oxazole-4,9′-xanthen]-2-amine]	4300	101	
CC#Cc1cncc(-c2ccc3c(c2)[C@@]2(COC(N)=N2)c2cc(OC)cc(F)c2O3)c1 [Example 824, (4S)-4′-fluoro-2′-methoxy-7′-(5-(1-propyn-1-yl)-3-pyridinyl)spiro[1,3-oxazole-4,9′-xanthen]-2-amine]	20	0.2	
NC1=N[C@@]2(CO1)c1cc(-c3cncc(C#CCO)c3)ccc1Oc1cnc(-c3ccnc(F)c3)cc12 [Example 825, 3-(5-((5S)-2′-amino-3-(2-fluoro-4-pyridinyl)spiro[chromeno[2,3-c]pyridine-5,4′-[1,3]oxazol]-7-yl)-3-pyridinyl)-2-propyn-1-ol]	6	0.3	
NC1=N[C@@]2(CO1)c1cc(-c3cncc(C#CCO)c3)ccc1Oc1cnc(C3=CCCOC3)cc12 [Example 827, 3-(5-((5S)-2′-amino-3-(5,6-dihydro-2H-pyran-3-yl)spiro[chromeno[2,3-c]pyridine-5,4′-[1,3]oxazol]-7-yl)-3-pyridinyl)-2-propyn-1-ol]	2	0.5	
COc1nc(Cl)cc2c1Oc1ccc(-c3cccnc3F)cc1[C@@]21COC(N)=N1 [Example 828, (5S)-3-chloro-7-(2-fluoro-3-pyridinyl)-1-methoxyspiro[chromeno[2,3-c]pyridine-5,4′-[1,3]oxazol]-2′-amine]	≥ 10000	134	
CC#Cc1cncc(-c2ccc3c(c2)[C@@]2(COC(N)=N2)c2cc(Cl)nc(OC)c2O3)c1 [Example 829, (5S)-3-chloro-1-methoxy-7-(5-(1-propyn-1-yl)-3-pyridinyl)spiro[chromeno[2,3-c]pyridine-5,4′-[1,3]oxazol]-2′-amine]	4100	30.2	
COc1nc(Cl)cc2c1Oc1ccc(-c3cccnc3)cc1[C@@]21COC(N)=N1 [Example 830, (5S)-3-chloro-1-methoxy-7-(3-pyridinyl)spiro[chromeno[2,3-c]pyridine-5,4′-[1,3]oxazol]-2′-amine]	≥ 10000	469	

Source: patent US8883782B2, “Spiro-tetracyclic ring compounds as beta-secretase modulators and methods of use” (Amgen Inc., priority 2010, dated 2014)
